In ChEMBL document CHEMBL5154927, “Discovery of Novel Bicyclic Phenylselenyl-Containing Hybrids: An Orally Bioavailable, Potential, and Multiacting Class of Estrogen Receptor Modulators against Endocrine-Resistant Breast Cancer” (J Med Chem, 2022):
Active and inactive are the calls of the source. The calls are words filed in the database; no cut-off is given here.

Tests used:
MCF7 [1] = test: Induction of mitochondrial membrane potential loss in human MCF7 cells at 1 uM incubated for 48 hrs by JC-1 staining based flow cytometry relative to control; assay type: functional
[2] = Tmax in BALB/C mouse at 20 mg/kg, po by LC-MS/MS analysis; assay type: ADME, organism-based; settings: in vivo
[3] = Half life in BALB/C mouse at 20 mg/kg, po by LC-MS/MS analysis; assay type: ADME, organism-based; settings: in vivo
[4] = target: T1, Hexokinase-1 (Homo sapiens) (UniProt P19367); test: Binding affinity to hexokinase-1 in human MCF7 cell lysate measured after overnight incubation by LC-MS/MS analysis; assay type: subcellular; settings: filed as antagonist, time 14.0 hrs
T1 sequence (whole entry): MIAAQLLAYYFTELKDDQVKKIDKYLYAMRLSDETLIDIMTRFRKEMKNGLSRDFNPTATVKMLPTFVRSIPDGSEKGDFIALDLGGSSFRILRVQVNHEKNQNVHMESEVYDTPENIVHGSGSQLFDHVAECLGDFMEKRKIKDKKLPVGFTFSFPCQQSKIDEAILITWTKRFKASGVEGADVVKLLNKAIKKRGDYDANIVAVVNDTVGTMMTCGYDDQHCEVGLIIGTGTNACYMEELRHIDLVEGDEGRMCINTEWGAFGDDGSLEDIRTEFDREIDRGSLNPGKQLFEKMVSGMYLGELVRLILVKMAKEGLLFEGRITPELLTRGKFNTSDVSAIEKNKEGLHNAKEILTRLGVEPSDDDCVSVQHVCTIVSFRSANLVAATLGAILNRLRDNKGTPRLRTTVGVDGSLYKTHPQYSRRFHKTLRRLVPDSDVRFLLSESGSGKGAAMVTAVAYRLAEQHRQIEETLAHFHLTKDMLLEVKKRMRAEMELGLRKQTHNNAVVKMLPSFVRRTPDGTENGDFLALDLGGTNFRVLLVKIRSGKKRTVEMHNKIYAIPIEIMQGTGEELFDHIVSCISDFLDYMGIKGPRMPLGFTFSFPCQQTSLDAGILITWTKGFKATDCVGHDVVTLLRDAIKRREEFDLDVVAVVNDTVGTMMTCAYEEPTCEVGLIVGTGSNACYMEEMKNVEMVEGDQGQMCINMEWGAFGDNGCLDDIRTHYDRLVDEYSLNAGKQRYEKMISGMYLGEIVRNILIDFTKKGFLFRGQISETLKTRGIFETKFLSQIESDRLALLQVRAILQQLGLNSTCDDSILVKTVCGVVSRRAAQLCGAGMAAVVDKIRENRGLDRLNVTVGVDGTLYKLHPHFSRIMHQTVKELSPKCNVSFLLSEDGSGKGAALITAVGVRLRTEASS

MCF7 [5] = test: Induction of apoptosis in human MCF7 cells assessed as total apoptotic cells at 4 uM incubated for 48 hrs by annexin V-FITC staining based flow cytometry; assay type: functional
[6] = Cmax in BALB/C mouse at 20 mg/kg, po by LC-MS/MS analysis; assay type: ADME, organism-based; design: dose 20 mg/kg, route po; settings: in vivo
[7] = Toxicity in BALB/C mouse xenografted with tamoxifen-resistant human LCC2 cells assessed as mortality at 20 mg/kg, po measured after 22 days; assay type: organism-based; settings: in vivo, 528 h, time 22 day
MCF7 [8] = test: Induction of apoptosis in human MCF7 cells assessed as total apoptotic cells at 1 uM incubated for 48 hrs by annexin V-FITC staining based flow cytometry; assay type: functional
MCF7 [9] = test: Induction of mitochondrial membrane potential loss in human MCF7 cells at 4 uM incubated for 48 hrs by JC-1 staining based flow cytometry relative to control; assay type: functional
MCF7 [10] = test: Downregulation of hexokinase-1 expression in human MCF7 cell outer mitochondrial membrane at 1 to 16 uM measured after 24 hrs by Western blot analysis; assay type: functional; settings: Mitochondria, dose 1-16 µM
LCC2 [11] = test: Induction of apoptosis in tamoxifen-resistant human LCC2 cells assessed as decrease in Bcl-2/Bax ratio by western blot analysis; assay type: functional, cell-based; settings: DDE = dose-dependent effect
MCF7 [12] = test: Antitumor activity against human MCF7 cells xenografted in BALB/C mouse assessed as reduction of tumor weight at 20 mg/kg, po measured every 2 days for 34 days; assay type: functional, organism-based; settings: time 34.0 day
[13] = Toxicity in BALB/C mouse xenografted with human MCF7 cells assessed as morphological changes in heart at 10 to 20 mg/kg, po by hematoxylin and eosin staining based analysis; assay type: organism-based; settings: in vivo, dose 10-20 mg/kg
[14] = Antiproliferative activity against human MCF-10A cells assessed as reduction in cell viability measured after 72 hrs by Cell Counting Kit-8 assay; assay type: toxicity, cell-based
LCC2 [15] = test: Induction of mitochondrial membrane potential loss in tamoxifen-resistant human LCC2 cells at 5 to 30 uM incubated for 48 hrs by JC-1 staining based flow cytometry; assay type: functional, cell-based; settings: dose 5-30 µM
LCC2 [16] = test: Induction of ROS production in tamoxifen-resistant human LCC2 cells at 1 to 4 uM measured after 48 hrs by DCFH-DA staining based confocal laser scanning microscopic method; assay type: functional, cell-based; settings: dose 1-4 µM
[17] = Toxicity in BALB/C mouse xenografted with human MCF7 cells assessed as morphological changes in liver at 10 to 20 mg/kg, po by hematoxylin and eosin staining based analysis; assay type: organism-based; settings: in vivo, dose 10-20 mg/kg
MCF7 [18] = test: Induction of apoptosis in human MCF7 cells assessed as decrease in Bcl-2/Bax ratio by western blot analysis; assay type: functional, cell-based; settings: DDE = dose-dependent effect
[19] = AUC in BALB/C mouse at 20 mg/kg, po by LC-MS/MS analysis; assay type: ADME, organism-based; design: dose 20 mg/kg, route po; settings: in vivo
LCC2 [20] = test: Downregulation of hexokinase-1 expression in tamoxifen-resistant human LCC2 cell mitochondria at 20 uM measured after 24 hrs by DAPI staining based immunofluorescence microscopy; assay type: functional
[21] = Volume of distribution at steady state in BALB/C mouse at 5 mg/kg, iv by LC-MS/MS analysis; assay type: ADME, organism-based; settings: in vivo, read-out: Vdss
[22] = target: T1, Hexokinase-1 (Homo sapiens); test: Inhibition of human recombinant hexokinase-1 assessed as NADPH generation measured after 1 hr by HPLC analysis; settings: DDE = dose-dependent effect

With `O=S(=O)(Oc1cccc2ccccc12)C1CC2OC1C(c1ccc([Se]c3ccccc3)cc1)=C2c1ccc(O)cc1` (configuration not stated) the Activity (MCF7 [1]) was 9.61%, the Tmax [2] was 2 h and the half-life [3] was 0.93 h. For the same molecule, the Activity [4] was “Active”, the Activity (MCF7 [5]) was 19.98% and the Cmax [6] was 400 ng/mL. The Activity [7] was “Non-Toxic”, the Activity (MCF7 [8]) was 15.15% and the Activity (MCF7 [9]) was 13.87%. The Activity (MCF7 [10]) was “Active”, the Activity (LCC2 [11]) was “Dde” and the Activity (MCF7 [12]) was “Active”. For the same molecule, the Activity [13] was “Non-Toxic”, the IC50 at 72 h [14] was over 60 µM and the Activity (LCC2 [15]) was “Active”. For the same molecule, the Activity (LCC2 [16]) was “Active”, the Activity [17] was “Non-Toxic” and the Activity (MCF7 [18]) was “Dde”. For the same molecule, the AUC [19] was 1430 ng·h/mL, the Activity (LCC2 [20]) was “Active” and the Vd [21] was 21.6 L/kg. The Activity [22] was “Dde”.
